Converted amounts (≈) assume the structure as drawn.
How the values were obtained:
Staphylococcus aureus = assay: Antibacterial activity against Staphylococcus aureus clinical isolate after 18 to 22 hrs by broth microdilution method; format: functional
Staphylococcus warneri = assay: Antibacterial activity against Staphylococcus warneri clinical isolate after 18 to 22 hrs by broth microdilution method; format: functional
Enterococcus faecalis = assay: Antibacterial activity against Streptococcus faecalis clinical isolate after 18 to 22 hrs by broth microdilution method; format: functional
Escherichia coli = assay: Antibacterial activity against Escherichia coli after clinical isolate 18 to 22 hrs by broth microdilution method; format: functional
Proteus mirabilis = assay: Antibacterial activity against Proteus mirabilis clinical isolate after 18 to 22 hrs by broth microdilution method; format: functional
Enterobacter sp. = assay: Antibacterial activity against Enterobacter spp. clinical isolate after 18 to 22 hrs by broth microdilution method; format: functional
Klebsiella oxytoca = assay: Antibacterial activity against Klebsiella oxytoca clinical isolate after 18 to 22 hrs by broth microdilution method; format: functional
Candida albicans = assay: Antifungal activity against Candida albicans clinical isolate after 24 hrs by broth microdilution method; format: functional
Nakaseomyces glabratus = assay: Antifungal activity against Candida glabrata clinical isolate after 24 hrs by broth microdilution method; format: functional
Candida tropicalis = assay: Antifungal activity against Candida tropicalis clinical isolate after 24 hrs by broth microdilution method; format: functional
Pichia kudriavzevii = assay: Antifungal activity against Candida krusei clinical isolate after 24 hrs by broth microdilution method; format: functional
Candida parapsilosis = assay: Antifungal activity against Candida parapsilosis clinical isolate after 24 hrs by broth microdilution method; format: functional; details: Lodderomyces parapsilosis
[Candida] sake = Antifungal activity against Candida sake clinical isolate after 24 hrs by broth microdilution method; format: functional; details: Fermentozyma sake
[1] = Cytotoxicity against human Hep2 cells assessed as cell survival at 0.05 ug/ml after 24 hrs by trypan blue exclusion assay; format: cell-based, HEp-2; details: read-out: Survival
[2] = Cytotoxicity against human Hep2 cells assessed as cell survival at 0.5 ug/ml after 24 hrs by trypan blue exclusion assay; format: cell-based, HEp-2; details: read-out: Survival
[3] = Cytotoxicity against human Hep2 cells assessed as cell survival at 5 ug/ml after 24 hrs by trypan blue exclusion assay; format: cell-based, HEp-2; details: read-out: Survival
[4] = Cytotoxicity against human Hep2 cells assessed as cell survival at 10 ug/ml after 24 hrs by trypan blue exclusion assay; format: cell-based, HEp-2; details: read-out: Survival
[5] = Cytotoxicity against human Hep2 cells assessed as cell survival at 50 ug/ml after 24 hrs by trypan blue exclusion assay; format: cell-based, HEp-2; details: read-out: Survival
[6] = Cytotoxicity against human Hep2 cells assessed as reduction in cell viability after 24 hrs by trypan blue exclusion assay; format: cell-based, HEp-2
[7] = Antioxidant activity of the compound after 90 mins by phosphomolybdenum assay; format: physicochemical
[8] = Antioxidant activity of the compound after 30 mins by FRAP assay; format: physicochemical
[9] = Antioxidant activity of the compound after 30 mins by CUPRAC method; format: physicochemical
[10] = Antioxidant activity assessed as DPPH radical scavenging activity after 30 mins under dark conditions; format: physicochemical
[11] = Antioxidant activity assessed as ABTS radical scavenging activity after 30 mins under dark conditions; format: physicochemical
[12] = Metal chelating activity of the compound assessed as ferrous ion complex formation after 10 mins; format: physicochemical
[13] = test system: Streptococcus sp. (viridans group); assay: Antibacterial activity against Streptococcus alpha-hemolyticus clinical isolate after 18 to 22 hrs by broth microdilution method

Row | SMILES | MIC (Staphylococcus aureus) [µg/mL] | MIC (Staphylococcus warneri) [µg/mL] | MIC (Enterococcus faecalis) [µg/mL] | MIC (Escherichia coli) [µg/mL] | MIC (Proteus mirabilis) [µg/mL] | MIC (Enterobacter sp.) [µg/mL] | MIC (Klebsiella oxytoca) [µg/mL] | MIC (Candida albicans) [µg/mL] | MIC (Nakaseomyces glabratus) [µg/mL] | MIC (Candida tropicalis) [µg/mL] | MIC (Pichia kudriavzevii) [µg/mL] | MIC (Candida parapsilosis) [µg/mL] | MIC ([Candida] sake) [µg/mL] | viability at 24 h, 0.05 ug/ml [1] [%] | viability at 24 h, 0.5 ug/ml [2] [%] | viability at 24 h, 5 ug/ml [3] [%] | viability at 24 h, 10 ug/ml [4] [%] | viability at 24 h, 50 ug/ml [5] [%] | CC50 at 24 h [6] [µg/mL] | EC50 [7] [mM] | other results
1 | O=C1CS/C(=N\N=C2CCCC2)N1Cc1ccccc1F | > 256 | > 256 | > 256 | > 256 | > 256 | > 256 | > 256 | 2 (≈ 6.55 µM) | 2 (≈ 6.55 µM) | 2 (≈ 6.55 µM) | 8 (≈ 26.2 µM) | 2 (≈ 6.55 µM) | 2 (≈ 6.55 µM) | 82 | 69 | 52 | 37 | 0 | 11 (≈ 36 µM) | 0.7 | EC50 [8]: 5.63 mM; EC50 [9]: 2.37 mM; IC50 [10]: > 5 mM; IC50 [11]: 12.4 mM; IC50 [12]: > 5 mM; MIC [13]: > 256 µg/mL
2 | C/C(=N/N=C1\SCC(=O)N1Cc1ccccc1[N+](=O)[O-])c1cccs1 | > 256 | > 256 | > 256 | > 256 | > 256 | > 256 | > 256 | 2 (≈ 5.34 µM) | 2 (≈ 5.34 µM) | 4 (≈ 10.7 µM) | 2 (≈ 5.34 µM) | 8 (≈ 21.4 µM) | 2 (≈ 5.34 µM) | 88 | 84 | 74 | 61 | 0 | 20 (≈ 53.4 µM) | 1.12 | EC50 [8]: 2.4 mM; EC50 [9]: 2.25 mM; IC50 [10]: > 5 mM; IC50 [11]: 18.1 mM; IC50 [12]: > 5 mM; MIC [13]: > 256 µg/mL
3 | CC(C)=N/N=C1\SCC(=O)N1Cc1cccc([N+](=O)[O-])c1 | > 256 | > 256 | > 256 | > 256 | > 256 | > 256 | > 256 | 2 (≈ 6.53 µM) | 2 (≈ 6.53 µM) | 2 (≈ 6.53 µM) | 2 (≈ 6.53 µM) | 16 (≈ 52.2 µM) | 2 (≈ 6.53 µM) | 79 | 68 | 51 | 0 | 0 | 5 (≈ 16.3 µM) | 1.24 | EC50 [8]: 5.29 mM; EC50 [9]: 2.35 mM; IC50 [10]: > 5 mM; IC50 [11]: 19.4 mM; IC50 [12]: > 5 mM; MIC [13]: > 256 µg/mL
4 | O=C1CS/C(=N\N=C2CCCC2)N1Cc1ccc(Cl)cc1 | > 256 | > 256 | > 256 | > 256 | > 256 | > 256 | > 256 | 2 (≈ 6.21 µM) | 2 (≈ 6.21 µM) | 2 (≈ 6.21 µM) | 8 (≈ 24.9 µM) | 2 (≈ 6.21 µM) | 4 (≈ 12.4 µM) | 89 | 83 | 59 | 47 | 0 | 16 (≈ 49.7 µM) | 0.56 | EC50 [8]: 4.8 mM; EC50 [9]: 2.1 mM; IC50 [10]: > 5 mM; IC50 [11]: 18.3 mM; IC50 [12]: > 5 mM; MIC [13]: > 256 µg/mL
